Source: patent publication US20260241012A1, “1,8-NAPHTHYRIDIN-2-ONE HETEROBIFUNCTIONAL BCL6 DEGRADERS” (Treeline Biosciences, Inc., priority 2022, published 2026)

Target: T1, N-terminal HiBiT tagged BCL6 (Homo sapiens, UniProt P41182)
T1 construct: expressed in transfected cells; host or cells: HT1080 (ATCC CCL-121), stably transduced with lentivirus pLV-UBC-N-HiBiT-BCL6-PGK-puro
Assay: HiBiT based degradation assay
Assay type: cell-based
Conditions: HT1080 cells expressing N-terminal HiBiT tagged BCL6, 5 hours of incubation; for Ymin (5 hr): BCL6 degradation normalized with DMSO control; for DC50: four-parameter logistic model, read-out: EC50 (5 hr)
Procedure, shortened: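 Degradation measured by luminescence from the Nano-Glo HiBiT lytic reagent (15 min, room temperature), normalized to DMSO controls and fitted to a four-parameter curve.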

| Compound | Ymin (5 hr) | DC50 [nM] |
| --- | --- | --- |
| CNC(=O)COc1cc2cc(Nc3nc(N4CCN(C(=O)N5CCC(c6ccc7c(C8CCC(=O)NC8=O)nn(C)c7c6)CC5)CC4)ncc3Cl)cnc2n(C(C)C)c1=O (centres unmarked) [Compound 220, 2-[[6-[[5-chloro-2-[4-[4-[3-(2,6-dioxo-3-piperidyl)-1-methyl-indazol-6-yl]piperidine-1-carbonyl]piperazin-1-yl]pyrimidin-4-yl]amino]-1-isopropyl-2-oxo-1,8-naphthyridin-3-yl]oxy]-N-methyl-acetamide] | +++ (30% ≤ Ymin < 50%) | < 10 |
| CNC(=O)COc1cc2cc(Nc3nc(N4CC5(CC[C@@H](Nc6ccc7c(C8CCC(=O)NC8=O)nn(C)c7c6)[C@H](C)C5)C4)ncc3Cl)cnc2n(C)c1=O (relative stereo) [Compound 156d, 2-((6-((5-chloro-2-((6R,7R)-7-((3-(2,6-dioxopiperidin-3-yl)-1-methyl-1H-indazol-6-yl)amino)-6-methyl-2-azaspiro[3.5]nonan-2-yl)pyrimidin-4-yl)amino)-1-methyl-2-oxo-1,2-dihydro-1,8-naphthyridin-3-yl)oxy)-N-methylacetamide] | ++++ (Ymin < 30%) | < 10 |
| CNC(=O)COc1cc2cc(Nc3nc(N4CC5(CCC(Oc6cccc7c(C8CCC(=O)NC8=O)nn(C)c67)CC5)C4)ncc3Cl)cnc2n(C(C)C)c1=O (centres unmarked) [Compound 181, 2-[[6-[[5-chloro-2-[7-[3-(2,6-dioxo-3-piperidyl)-1-methyl-indazol-7-yl]oxy-2-azaspiro[3.5]nonan-2-yl]pyrimidin-4-yl]amino]-1-isopropyl-2-oxo-1,8-naphthyridin-3-yl]oxy]-N-methyl-acetamide] | +++ (30% ≤ Ymin < 50%) | 10 to 100 |
| CNC(=O)COc1cc2cc(Nc3nc(N4CC[C@@H](CN5CCN(c6ccc7c(C8CCC(=O)NC8=O)nn(C)c7c6)CC5)C4)ncc3Cl)cnc2n(C(C)C)c1=O (stereo partly drawn) [Compound 218a, 2-[[6-[[5-chloro-2-[(3S)-3-[[4-[3-(2,6-dioxo-3-piperidyl)-1-methyl-indazol-6-yl]piperazin-1-yl]methyl]pyrrolidin-1-yl]pyrimidin-4-yl]amino]-1-isopropyl-2-oxo-1,8-naphthyridin-3-yl]oxy]-N-methyl-acetamide] | +++ (30% ≤ Ymin < 50%) | < 10 |
| CNC(=O)COc1cc2cc(Nc3nc(N4CC5(CCC(Nc6cccc7c(C8CCC(=O)NC8=O)nn(C)c67)CC5)C4)ncc3Cl)cnc2n(C)c1=O (centres unmarked) [Compound 137, 2-((6-((5-chloro-2-(7-((3-(2,6-dioxopiperidin-3-yl)-1-methyl-1H-indazol-7-yl)amino)-2-azaspiro[3.5]nonan-2-yl)pyrimidin-4-yl)amino)-1-methyl-2-oxo-1,2-dihydro-1,8-naphthyridin-3-yl)oxy)-N-methylacetamide] | ++++ (Ymin < 30%) | < 10 |
| CNC(=O)COc1cc2cc(Nc3nc(N4CC[C@@H](CNc5ccc6c(C7CCC(=O)NC7=O)nn(C)c6c5)C4)ncc3Cl)cnc2n(C)c1=O (stereo partly drawn) [Compound 123b, 2-((6-((5-chloro-2-((3S)-3-(((3-(2,6-dioxopiperidin-3-yl)-1-methyl-1H-indazol-6-yl)amino)methyl)pyrrolidin-1-yl)pyrimidin-4-yl)amino)-1-methyl-2-oxo-1,2-dihydro-1,8-naphthyridin-3-yl)oxy)-N-methylacetamide] | ++++ (Ymin < 30%) | < 10 |
| CNC(=O)COc1cc2cc(Nc3nc(N4CC5(CC(Oc6ccc7c(C8CCC(=O)NC8=O)nn(C)c7c6)C5)C4)ncc3Cl)cnc2n(C(C)C)c1=O (centres unmarked) [Compound 213, 2-[[6-[[5-chloro-2-[6-[3-(2,6-dioxo-3-piperidyl)-1-methyl-indazol-6-yl]oxy-2-azaspiro[3.3]heptan-2-yl]pyrimidin-4-yl]amino]-1-isopropyl-2-oxo-1,8-naphthyridin-3-yl]oxy]-N-methyl-acetamide] | ++++ (Ymin < 30%) | < 10 |
